In US9101161B2, “High-potency sweetener composition with phytoestrogen and compositions sweetened therewith” (The Coca-Cola Company, priority 2006, dated 2015):

Tests used:
[1] = Rate of dissolution in H2O at 25° C. of rebaudioside A polymorph and amorphous forms; assay type: physicochemical
[2] = Sensory evaluation of sweetness linger, Example Set G (REBA in citric acid/potassium citrate composition); assay type: in vivo; parameters: key: 0=no sweetness linger; 1=very slight sweetness linger; 2=slight sweetness linger; 3=moderate sweetness linger; 4=moderately high sweetness linger; 5 high sweetness linger; conditions: for sweetness linger: 400 ppm REBA in citric acid/potassium citrate composition equivalent to diet lemon-lime beverage, plus additive, expert panel, scale 0-5, sweetness 3-4 min after water rinse; for Sweetness Linger rating defined for controls: defined by the protocol, sucrose, 500 ppm REBA control sample
Method: Sensory evaluation of the samples prepared in Example Set G was carried out under the following protocol, similar to that described hereinabove. In this test protocol, none of the samples were swallowed. All samples were expectorated and the mouth was rinsed with water after the tasting, Immediately upon sensing maximal sweetness, the sample was expectorated, the mouth was rinsed with water and the rate of sweetness decay (“Sweetness Linger”) was measured, where attention was focused on the sweetness 3-4 min after the water rinse. After sample tasting was complete, a salty oyster cracker was chewed followed by a water rinse, and at least 5 minutes followed before tasting the next sample. The sweetness linger was rated by a panel of experts in the sensory evaluation of foods and beverages using the following scale: 0=no sweetness linger, 1=very slight sweetness linger, 2=slight sweetness linger, 3=moderate sweetness linger, 4=moderately high sweetness linger, 5 high sweetness linger.
The “Sweetness Linger” rating for sucrose observed by this protocol is defined as 0. The Sweetness Linger of a 500 ppm of REBA control sample is defined as 5. Experimental samples were tasted by the same protocol, always allowing sufficient time between samples to ensure re-equilibration of the sensory system. Re-tasting of control samples during the course of the experiment was allowed and encouraged.
The comparison taste test was performed between two controls and addition of sweet taste improving additive on the onset and/or sweetness linger.
The effects of formulation change on the sweetness linger of 400 ppm REBA (equivalent to 8 g sucrose) in a citric acid/potassium citrate composition equivalent to that in a diet lemon-lime beverage were evaluated. The sweetness linger rating of this solution was determined to be 5.
8 g of sugar was dissolved in 100 ml of citrate buffer. The sweetness linger rating of this control sample was determined to be 0.

[3] = Sensory evaluation of sweetness linger, Example Set H (REBA in phosphoric acid solution pH 2.4-2.5); assay type: in vivo; parameters: key: 0=no sweetness linger; 1=very slight sweetness linger; 2=slight sweetness linger; 3=moderate sweetness linger; 4=moderately high sweetness linger; 5 high sweetness linger; conditions: 500 ppm REBA (H41: 360 ppm) in carbon-treated water, phosphoric acid (75%) to pH 2.4-2.5, plus additive; scale 0-5
[4] = Sweetness level as sucrose equivalent; conditions: 400 ppm REBA
[5] = assay type: physicochemical
Method: A solution of rebaudioside A (>97% pure by HPLC) was prepared in double distilled water (12.5 gm in 50 mL, 25% concentration) by stirring the mixture at 40° C. for 5 minutes. An amorphous form of rebaudioside A was formed by immediately using the clear solution for spray drying with the Lab-Plant spray drier SD-04 instrument (Lab-Plant Ltd., West Yorkshire, U.K.). The solution was fed through the feed pump into the nozzle atomizer which atomized it into a spray of droplets with the help of a constant flow of nitrogen/air. […] This dry powder (11-12 g, H2O, 6.74%) was discharged continuously from the drying chamber and was collected in a bottle.

| Compound | Rate of dissolution in H2O at 25° C. ([1]; H2O, 25° C.) | Rate of dissolution in H2O at 25° C. ([1]; grade in words) | sweetness linger [2] | Sweetness Linger rating defined for controls [2] | sweetness linger [3] | sucrose equivalent [4] [g sucrose] | solubility in water at room temperature [5] [%] |
| --- | --- | --- | --- | --- | --- | --- | --- |
| rebaudioside A [Form 2] | (<30%/5 %/5 minutes | Intermediate |  |  |  |  |  |
| rebaudioside A |  |  | 5 | 5 | 5 | 8 |  |
| OC[C@H]1O[C@@](CO)(O[C@H]2O[C@H](CO)[C@@H](O)[C@H](O)[C@H]2O)[C@@H](O)[C@@H]1O [sucrose] |  |  | 0 | 0 | 0 |  |  |
| rebaudioside A [Form 4] | > 35 %/5 minutes | High |  |  |  |  | > 35.0 |
| rebaudioside A [Form 3] | > 30 %/5 minutes | High |  |  |  |  |  |
| rebaudioside A [Form 1] | (<0.2%/60 %/60 minutes | Very low |  |  |  |  |  |
